The source of these data is patent publication EP1219631A1, “ANTIANDROGEN AGENTS” (CHUGAI SEIYAKU KABUSHIKI KAISHA, priority 1999, dated 2001).

The target in data set [1] is T1, human androgen receptor (Homo sapiens, UniProt P10275).
T1 construct: expressed in transfected cells; host or cells: HeLa cells
T1 sequence (P10275 1-920): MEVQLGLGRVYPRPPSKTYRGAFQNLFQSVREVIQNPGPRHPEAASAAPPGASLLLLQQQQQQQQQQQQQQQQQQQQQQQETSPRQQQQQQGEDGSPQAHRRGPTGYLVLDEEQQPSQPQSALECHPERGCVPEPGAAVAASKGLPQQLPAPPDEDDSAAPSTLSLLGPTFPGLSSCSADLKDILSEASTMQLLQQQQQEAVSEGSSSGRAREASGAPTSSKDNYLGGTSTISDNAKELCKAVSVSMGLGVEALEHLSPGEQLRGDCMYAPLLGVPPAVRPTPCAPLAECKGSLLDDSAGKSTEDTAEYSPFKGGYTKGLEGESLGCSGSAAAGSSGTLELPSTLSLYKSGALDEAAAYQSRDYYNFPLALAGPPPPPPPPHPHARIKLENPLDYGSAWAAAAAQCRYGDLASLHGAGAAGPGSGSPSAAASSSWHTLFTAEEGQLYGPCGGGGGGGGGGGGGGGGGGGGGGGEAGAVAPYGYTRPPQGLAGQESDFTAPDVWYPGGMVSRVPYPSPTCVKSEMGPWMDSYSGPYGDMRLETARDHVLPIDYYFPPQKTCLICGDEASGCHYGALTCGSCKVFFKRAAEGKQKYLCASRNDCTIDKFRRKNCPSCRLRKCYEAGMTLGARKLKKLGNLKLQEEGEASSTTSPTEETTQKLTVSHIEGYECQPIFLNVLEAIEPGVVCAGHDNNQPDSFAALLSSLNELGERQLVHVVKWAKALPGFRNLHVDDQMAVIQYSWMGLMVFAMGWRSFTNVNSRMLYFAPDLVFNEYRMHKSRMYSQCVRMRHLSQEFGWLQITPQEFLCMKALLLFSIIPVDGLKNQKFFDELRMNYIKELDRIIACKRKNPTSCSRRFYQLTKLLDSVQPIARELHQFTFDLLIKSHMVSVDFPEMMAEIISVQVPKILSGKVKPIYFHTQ
Put plainly: Androgen receptor reporter gene assay, antagonist action against DHT (MMTV-Luc, pSG5/hAR and Renilla Luc vectors transfected into HeLa cells, dual-luciferase). The data set is classed as cell-based. On the procedure:
The expression "acting as antagonist" means that in the following androgen receptor gene assay, the transcriptional activity value of 0.1 nmol/L of dihydrotestosterone (DHT) is inhibited to 0 - 50% at any concentration of 0.1 nmol/L - 10 µmol/L:
Twenty-four hours before transfection, 1.0 x 10^5 HeLa cells are cultured in phenol red free DMEM/5% DCC-FBS on 12-well microplates. Five hundred nanograms/well of MMTV-Luc vector, 100 ng/well of pSG5/hAR and 5 ng/well of Renilla Luc vector are transfected into the HeLa cells. The transfection is performed in a liquid culture of the phenol red free DMEM using […] of lipofectoamine. Nine hours after the transfection, the liquid culture is replaced by phenol red free DMEM/3% DCC-FBS containing 0.1 nmol/L of DHT and […] of a compound of the invention which is represented by the general formula (I) or the substance of the invention which acts as antagonist against but not as agonist for the androgen receptor. The transcriptional activity value is measured 48 hours after the replacement of the liquid culture. Transcriptional activity is measured with a dual-luciferase reporter assay system. The transcriptional activity value is defined as the value for firefly luciferase divided by the value for sea pansy luciferase. […] 270, pp. 19998-20003, 1995.
(§1) Twenty-four hours before transfection, 1.0 x 10^5 HeLa cells were cultured in phenol red free DMEM/5% DCC-FBS on 12-well microplates. Five hundred nanograms/well of MMTV-Luc vector, 100 ng/well of pSG5/hAR and 5 ng/well of Renilla Luc vector were transfected into the HeLa cells. The transfection was performed in a liquid culture of the phenol red free DMEM using […] of lipofectoamine. […] The transcriptional activity value was measured 48 hours after the replacement of the liquid culture. Transcriptional activity was measured with a dual-luciferase reporter assay system. The transcriptional activity value was calculated as the value for firefly luciferase divided by the value for sea pansy luciferase.
The compound was added at concentrations of 1, 10, 100, 1000 and 10000 nmol/L and at each of these concentrations, measurement was done in the presence of DHT (0.1 nmol/L). Antagonist activity = Transcriptional activity when the compound was added/Transcriptional activity when the compound was not added x 100 [formula]
A general note: A reporter such as luciferase makes a cellular process visible.

The target in data set [2] is T1, human androgen receptor. Description: Androgen receptor reporter gene assay, agonist action (MMTV-Luc, pSG5-hAR and Renilla Luc vectors transfected into HeLa cells, dual-luciferase). It is filed as cell-based. The conditions noted are these: for FI5 value: concentration showing a transcriptional activity five times that without compound, tested at 1, 10, 100, 1000 and 10000 nmol/L.
Excerpt: Speaking of the substance of the invention which acts as antagonist against but not as agonist for the androgen receptor, the expression "not acting as agonist" means that in the following androgen receptor gene assay, the transcriptional activity value of the substance at any concentration of 0.1 nmol/L - 10 µmol/L is from one to five times the transcriptional activity value for no addition of the substance which is taken as unity:
Twenty-four hours before transfection, 1.0 x 10^5 HeLa cells (purchased from Dainippon Pharmaceutical Co., Ltd.) are cultured in phenol red free Dulbecco's modified Eagle medium (DMEM) containing 5% of charcoal-treated FBS (DCC-FBS) in 12-well microplates. Five hundred nanograms/well of MMTV-Luc vector (the reporter plasmid of luciferase having mouse tumor long terminal repeats containing the androgen response element: GM-CAT vector (A.T.C.C. No. 67282) purchased from A.T.C.C. provided that the chloramphenicol acetyl transferase gene was replaced by the firefly luciferase gene), 100 ng/well of pSG5-hAR (the expression vector of the human androgen receptor which harbors the androgen receptor gene under the control of SV40 promoter) and 5 ng/well of Renilla Luc vector (a vector for internal standard incorporating the sea pansy luciferase gene) are transfected into the HeLa cells. The transfection is performed in a liquid culture of the phenol red free DMEM using […] of lipofectoamine (GibcoBRL). Nine hours after the transfection, the liquid culture is replaced by phenol red free DMEM/3% DCC-FBS containing 10 µmol/L of a compound of the invention which is represented by the general formula (I) or the substance of the invention which acts as antagonist against but not as agonist for the androgen receptor. The transcriptional activity value is measured 48 hours after the replacement of the liquid culture. Transcriptional activity is measured with a dual-luciferase reporter assay system (Promega). The transcriptional activity value is defined as the value for firefly luciferase divided by the value for sea pansy luciferase. […] 270, pp. 19998-20003, 1995.
as §1, with “pSG5-hAR” for “pSG5/hAR”
The compound was added at concentrations of 1, 10, 100, 1000 and 10000 nmol/L. Agonist activity = Transcriptional activity when the compound was added/Transcriptional activity when the compound was not added [formula]

A further data set addresses androgen receptor (Homo sapiens, UniProt P10275). The conditions noted are these: cited from earlier work.
For data set [3] the following is noted: prostate cancer patients under flutamide treatment; cited from earlier work.
A further data set relates to castrated rats. The conditions noted are these: two-week continuous administration; cited from earlier work.

Usually IC50 stands for the point on the concentration scale where inhibition reaches its midpoint. A high value points to a need for much substance. `CN(C)C(=O)CCCCCCCCCCC1CC2CC(=O)CCC2(C)C2CCC3(C)C(O)CCC3C12` (stereo not drawn) [Example 52] came in with an IC50 against human androgen receptor [1] of 277 nM. For the same compound, at human androgen receptor [2], the FI5 value entry is on record as “ND (even when the compound was added at a concentration of 10000 nM, the transcriptional activity of the compound-treated group was less than 5 times the transcriptional activity of the control group, making it impossible to compute the FI5 value)”.
With `CC12CCC3C(C(CCCCCCCC(=O)NCCc4ccccc4)CC4CC(=O)CCC43C)C1CCC2O` (stereo not drawn) [Example 74], the IC50 on human androgen receptor [1] is 2040 nM. Also, the FI5 value result on human androgen receptor [2] is “ND (even when the compound was added at a concentration of 10000 nM, the transcriptional activity of the compound-treated group was less than 5 times the transcriptional activity of the control group, making it impossible to compute the FI5 value)”.
Regarding `CC(C)(O)C(=O)Nc1ccc([N+](=O)[O-])c(C(F)(F)F)c1` [Hydroxyflutamide, hydroxyflutamide], at human androgen receptor [1] (text of Example 2, with 0.1 nmol/L of DHT, HeLa cells, 48 hours), the “transcriptional activity value of DHT” value is listed as “less than 50%”. In addition, at androgen receptor, the “transcriptional activity of the androgen receptor” value is given as “elevated”. Moreover, the Plasma levels entry in data set [3] is listed as “several”. Also, the acting as agonist entry at human androgen receptor [2] (at a concentration of 10 µmol/L) is on record as “act as agonist”. At human androgen receptor [2], the FI5 value was 1000 nM. Besides, at human androgen receptor [2] (summary of the results of Example 180), the “agonist action for the androgen receptor mediated transcriptional activity” value is listed as “exhibit agonist action”.
For `CC(=O)O[C@]1(C(C)=O)CC[C@H]2[C@@H]3C=C(Cl)C4=CC(=O)CC[C@]4(C)[C@H]3CC[C@@]21C` [chlormadinone acetate], the prostate weight entry in the data set on castrated rats is given as “increased”.
Consider `CC(=O)O[C@]1(C(C)=O)CC[C@H]2[C@@H]3C=C(Cl)C4=CC(=O)[C@@H]5C[C@@H]5[C@]4(C)[C@H]3CC[C@@]21C` [cyproterone acetate], for which the prostate weight entry in the data set with castrated rats is given as “increased”.
